Experimental data reported in patent US20070191372A1, “Dna-targeted benzotriazine 1,4-dioxides and their use in cancer therapy” (Auckland Uniservices Limited, priority 2002, published 2007).

How the values were obtained:
[1] = tested on: human cervical carcinoma SiHa; test: Proliferation assay (IC50) under aerobic and hypoxic conditions, SiHa; assay type: cell-based; settings: for IC50: Homo sapiens, hypoxic, 4 h exposure; for RHT: ratio Tirapazamine/test compound under hypoxic conditions; for HCR: ratio of IC50 under aerobic and hypoxic conditions
Method: (§1) Evaluation of the Cytotoxicity of Compounds by Proliferation Assay (IC50) Under Aerobic and Hypoxic Conditions.
(§2) Compounds representative of the invention were evaluated under both aerobic and hypoxic conditions in a proliferation assay (IC50), using two cell lines: human colon carcinoma HT-29, and human cervical carcinoma SiHa.
(§3) Drug exposures were performed in 96-well plates (Nunc) using either a 37° C. humidified incubator (20% O2, 5% CO2) or in the incubator compartment (37° C.) of an anaerobic chamber (Shell Lab) where palladium catalyst scrubbed gas (90% N2, 5% H2, 5% CO2) ensures severe anoxia (<0.001% O2). For each experiment, compounds were simultaneously tested under both oxic and hypoxic conditions against the HT-29 cell line and included TPZ as an independent internal control at the front and back of the assay (n=2). Final data was pooled from a series of seven independent experiments and is calculated using inter-experimental means. In all cases, 8-methyl-5-nitroquinoline was used as a second internal control to confirm that strict hypoxia was present during the experiment. (Siim et al. Br. J. Cancer 1994, 70, 596-603). Cell cultures were grown in αMEM (Gibco) containing 5% heat inactivated FCS and maintained in exponential growth phase. For each individual experiment an appropriate number of cells were seeded (HT-29=1000) into wells in αMEM÷10% FCS+10 mM added glucose+100 μM 2′-deoxycytidine (2′dCyd), and allowed to attach for 3 h. High glucose (final concentration 17 mM) and the presence of 2′-dCyd minimize hypoxia-induced cell cycle arrest. Replicates were then exposed to BTOs, using 2-fold serial dilutions in triplicate, for a further 4 h. Subsequently cells were washed free of compound using complete media (without glucose/2′-dCyd) and allowed to grow for 5 (oxic) or 6 (anoxic) days. Plates were stained as described previously (Wilson et al., J. Med. Chem. 1989, 32, 31-38) and IC50 values determined.
(§4) IC50=The concentration of drug (in micromolar) to reduce viable cell numbers to 50% of those of control cell cultures grown under the same conditions but not exposed to drug
(§5) RHT=Relative hypoxic toxicity is defined as the ratio of concentrations of Tirapazamine/test compound to give equal cell killing under hypoxic conditions.
(§6) HCR=Hypoxic cytotoxicity ratio is defined as the ratio of drug concentrations under aerobic and hypoxic condition to produce equal cell survival (50%) determined by proliferation assay

[2] = tested on: human colon carcinoma HT-29; test: Proliferation assay (IC50) under aerobic and hypoxic conditions, HT-29; assay type: cell-based; settings: for RHT: HT-29, ratio Tirapazamine/test compound under hypoxic conditions; for HCR: HT-29, ratio of IC50 under aerobic and hypoxic conditions; for IC50: Homo sapiens, HT-29, hypoxic (anoxia <0.001% O2), 4 h exposure
Method: as §1, §2, §3, §4, §5, §6

murine SCCVII = test: Clonogenic assay under aerobic and hypoxic conditions, SCCVII; assay type: cell-based; settings: SCVIII cells; for IC90: Mus musculus, 1 h, hypoxic, 60 min drug exposure, SN (hypoxic), read-out: C10 hypoxic; for HCR: ratio of C10 under aerobic and hypoxic conditions; for RHT: ratio of hypoxic TPZ C10 to hypoxic compound C10
Method: (§7) Evaluation of the Cytotoxicity of Compounds by Clonogenic Assay Under Aerobic and Hypoxic Conditions.
(§8) Compounds representative of the invention were evaluated under both aerobic and hypoxic conditions in clonogenic assays, using three cell lines: human colon carcinoma HT-29, murine SCCVII, and human lung adenocarcinoma LXFL. Clonogenic survival was determined using aerobic and hypoxic SCCVII cell suspensions. Drug exposures were performed using continuously stirred and gassed single cell suspensions (10^6 cells/mL) at 37° C., equilibrated with 5% CO2 in air or N2 for 60 min before drug addition. After a 60 min drug exposure cells were washed by centrifugation and plated to determine colony formation Cytotoxicity was measured as the concentration required to reduce plating efficiency to 10% of controls (C10). The hypoxic cytotoxicity ratio (HCR) was determined as the ratio of the C10 values under aerobic and hypoxic conditions. The relative hypoxic toxicity (RHT) was determined as the ratio of hypoxic TPZ C10 to hypoxic BTO C10. Abbreviations used in Table 2 are:
(§9) C10=The concentration of drug (in micromolar) to reduce viable cell numbers to 10% of those of control cell cultures grown under the same conditions but not exposed to drug
as §5
(§10) HCR=Hypoxic cytotoxicity ratio is defined as the ratio of drug concentrations under aerobic and hypoxic condition to produce equal cell survival (10%) determined by clonogenic assay

[3] = tested on: human colon carcinoma HT-29; test: Clonogenic assay under aerobic and hypoxic conditions, HT-29; assay type: cell-based; settings: HT 29 cells; for C10 hypoxic: 60 min drug exposure, concentration reducing plating efficiency to 10% of controls; for HCR: ratio of C10 under aerobic and hypoxic conditions; for RHT: ratio of hypoxic TPZ C10 to hypoxic compound C10
Method: as §7, §8, §9, §5, §10

[4] = tested on: human lung adenocarcinoma LXFL; test: Clonogenic assay under aerobic and hypoxic conditions, LXFL; assay type: cell-based; settings: LXFL cells; for C10 hypoxic: 60 min drug exposure; for HCR: ratio of C10 under aerobic and hypoxic conditions; for RHT: ratio of hypoxic TPZ C10 to hypoxic compound C10
Method: as §7, §8, §9, §5, §10

[5] = cited from earlier work

Row | Compound | IC50 [1] | RHT [1] | HCR [1] | RHT [2] | HCR [2] | IC50 [2] | melting point | IC90 (murine SCCVII) | HCR (murine SCCVII) | RHT (murine SCCVII) | C10 hypoxic [3] | HCR [3] | RHT [3] | C10 hypoxic [4] | HCR [4] | RHT [4] | activity under aerobic or hypoxic conditions [5]
1 | O=C(NCCNCCNc1n[n+]([O-])c2ccccc2[n+]1[O-])c1cccc2ccc(-c3ccncc3)nc12 [Compound 102, N-[2-({2-[(1,4-Dioxido-1,2,4-benzotriazin-3-yl)amino]ethyl}amino)ethyl]-2-(4-pyridinyl)-8-quinolinecarboxamide] | 160 nM | 23 | 53 | 12 | 54 | 490 nM | 160 to 165 °C | – | – | – | – | – | – | – | – | – | –
2 | [O-][n+]1nc(NCCCCCCNc2c3ccccc3nc3ccccc23)[n+]([O-])c2ccccc21 [Compound 11, N^1-(9-Acridinyl)-N^6-(1,4-dioxido-1,2,4-benzotriazin-3-yl)-1,6-hexanediamine] | – | – | – | 370 | 38 | 16 nM | – | 480 nM | 20.0 | 16.7 | 0.12 µM | 83.0 | 416 | 0.04 µM | 35.0 | 450 | –
3 | O=C(NCCCNCCCNc1n[n+]([O-])c2ccccc2[n+]1[O-])c1cccc2cc3ccccc3nc12 [Compound 30, N-[3-({3-[(1,4-Dioxido-1,2,4-benzotriazin-3-yl)amino]propyl}amino)propyl]-4-acridinecarboxamide] | 31 nM | 121 | 41 | 90 | 167 | 65 nM | – | 300 nM | 21.3 | 20 | 0.9 µM | 33.0 | 78 | 0.4 µM | 12.5 | 50 | –
4 | Cc1cccc2cc3cccc(C(=O)NCCNCCNc4n[n+]([O-])c5ccccc5[n+]4[O-])c3nc12 [Compound 103, N-[2-({2-[(1,4-Dioxido-1,2,4-benzotriazin-3-yl)amino]ethyl}amino)ethyl]-5-methyl-4-acridinecarboxamide] | 10 nM | 309 | 118 | 357 | 83 | 35 nM | 135 to 140 °C | – | – | – | – | – | – | – | – | – | –
5 | CN(CCNC(=O)c1cccc2ccc(-c3ccncc3)nc12)CCNc1n[n+]([O-])c2ccccc2[n+]1[O-] [Compound 96, N-{2-[{2-[(1,4-Dioxido-1,2,4-benzotriazin-3-yl)amino]ethyl}(methyl)amino]ethyl}-2-(4-pyridinyl)-8-quinolinecarboxamide] | 100 nM | 37 | 78 | 31 | 77 | 190 nM | 130 to 135 °C | 2300 nM | 65 | 3.9 | – | – | – | – | – | – | –
6 | Nc1nc2ccccc2[n+]([O-])n1 [SR 4317] | – | – | – | – | – | – | – | – | – | – | – | – | – | – | – | – | inactive
7 | CN(CCCNC(=O)c1cccc2cc3ccccc3nc12)CCCNc1n[n+]([O-])c2ccccc2[n+]1[O-] [Compound 41, N-{3-[{3-[(1,4-Dioxido-1,2,4-benzotriazin-3-yl)amino]propyl}(methyl)amino]propyl}-4-acridinecarboxamide] | – | – | – | 134 | 154 | 43 nM | – | 800 nM | 52.5 | 12.5 | – | – | – | 0.4 µM | 50 | 37.5 | –
8 | Nc1nnc2ccccc2n1 [SR 4330] | – | – | – | – | – | – | – | – | – | – | – | – | – | – | – | – | inactive
9 | Cc1ccc2c(c1)[n+]([O-])nc(NCCCN(C)CCCNC(=O)c1cccc3ccc(-c4ccncc4)nc13)[n+]2[O-] [Compound 75, N-[3-(Methyl{3-[(7-methyl-1,4-dioxido-1,2,4-benzotriazin-3-yl)amino]propyl}amino)propyl]-2-(4-pyridinyl)-8-quinolinecarboxamide] | 70 nM | 53 | 110 | 29 | 92 | 200 nM | 178 to 180 °C | – | – | – | – | – | – | – | – | – | –
10 | Cc1cccc2nc3cccc(C(=O)NCCN(C)CCNc4n[n+]([O-])c5ccccc5[n+]4[O-])c3nc12 [Compound 98, N-{2-[{2-[(1,4-Dioxido-1,2,4-benzotriazin-3-yl)amino]ethyl}(methyl)amino]ethyl}-9-methyl-1-phenazinecarboxamide] | 75 nM | 63 | 30 | 114 | 45 | 135 nM | 161 to 163 °C | – | – | – | – | – | – | – | – | – | –
